In ChEMBL document CHEMBL5543083, “3,5-Disubstituted-thiazolidine-2,4-dione hybrids as antidiabetic agents: Design, synthesis, in-vitro and In vivo evaluation” (Eur J Med Chem, 2024):
In brackets after ≈: the same amount, converted by molar mass. Activity calls are given as the source filed them. No cut-off for these calls is given here.

Columns and labels:
[1] = biological target: Alpha-glucosidase (Saccharomyces cerevisiae S288c, UniProt P53341+P38158+P07265); assay: Inhibition of yeast Alpha glucosidase 4-nitrophenyl-alpha-D-glucopyranoside incubated for 15 to 20 mins by Bio-rad microplate reader analysis; type: protein assay
[2] = Antioxidant activity assessed as DPPH radical scavenging activity measured for 30 mins by spectrophotometric analysis; type: functional
[3] = biological target: T1, Alpha-amylase (Sus scrofa domesticus, UniProt Q7M328); assay: Inhibition of porcine pancreatic Alpha-amylase using starch as substrate preincubated for 10 mins followed by substrate addition and measured after 15 mins by Bio-rad microplate reader analysis
T1 sequence (Q7M328 whole entry): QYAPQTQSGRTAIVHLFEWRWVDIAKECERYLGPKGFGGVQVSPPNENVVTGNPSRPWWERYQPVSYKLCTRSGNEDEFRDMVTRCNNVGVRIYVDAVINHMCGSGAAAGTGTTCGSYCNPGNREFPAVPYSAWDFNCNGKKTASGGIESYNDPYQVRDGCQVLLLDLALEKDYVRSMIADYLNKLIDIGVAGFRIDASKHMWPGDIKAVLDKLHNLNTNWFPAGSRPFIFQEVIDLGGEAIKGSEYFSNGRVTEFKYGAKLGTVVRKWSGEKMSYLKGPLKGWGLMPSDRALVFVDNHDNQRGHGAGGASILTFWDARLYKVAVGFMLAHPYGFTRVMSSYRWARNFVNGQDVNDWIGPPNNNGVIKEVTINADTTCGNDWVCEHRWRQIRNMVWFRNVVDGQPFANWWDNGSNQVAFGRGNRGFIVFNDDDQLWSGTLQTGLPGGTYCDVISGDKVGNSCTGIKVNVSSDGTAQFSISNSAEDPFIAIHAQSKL

[4] = system: PANC-1; assay: Cytotoxicity against human PANC-1 cells assessed as inhibition of cell growth; type: functional, cell-based
[5] = system: PANC-1; assay: Induction of ROS production in high glucose-induced human PANC-1 cells assessed as maximum fluorescence intensity at 10 uM incubated for 30 mins DCFDA-staining based flow cytometry analysis (reference value: 15.09); type: functional; settings: 0.5 h
[6] = biological target: T2, Alpha amylase (Homo sapiens, UniProt P0DUB6); assay: Inhibition of Alpha-amylase (unknown origin); type: protein assay
T2 sequence (P0DUB6 whole entry): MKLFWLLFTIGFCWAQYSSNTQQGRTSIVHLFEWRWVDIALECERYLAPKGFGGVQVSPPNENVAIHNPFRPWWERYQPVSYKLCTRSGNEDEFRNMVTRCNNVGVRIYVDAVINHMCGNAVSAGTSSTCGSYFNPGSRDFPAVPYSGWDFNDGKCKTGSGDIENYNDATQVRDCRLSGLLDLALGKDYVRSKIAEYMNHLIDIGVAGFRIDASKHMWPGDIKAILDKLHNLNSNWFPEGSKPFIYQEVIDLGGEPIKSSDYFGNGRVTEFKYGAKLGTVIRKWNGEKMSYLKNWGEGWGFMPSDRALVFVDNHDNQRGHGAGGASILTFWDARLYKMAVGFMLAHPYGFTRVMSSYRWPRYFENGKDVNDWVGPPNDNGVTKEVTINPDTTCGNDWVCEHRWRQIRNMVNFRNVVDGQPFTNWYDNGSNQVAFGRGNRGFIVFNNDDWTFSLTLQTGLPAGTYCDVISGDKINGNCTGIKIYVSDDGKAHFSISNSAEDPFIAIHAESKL

[7] = Inhibition of Alpha glucosidase (unknown origin); set-up: species or system Homo sapiens
[8] = system: Rattus norvegicus; assay: Antidiabetic activity against streptozotocin-induced Wistar rat assessed as increase in IL1-beta level in Pancreas at 10 mg/kg, po measured upto 35 days; type: functional, organism-based; settings: time <= 35.0 day
[9] = Toxicity in streptozotocin-induced Wistar rat assessed as change in blood lymphocyte count at 10 mg/kg, po measured up to 35 days; type: organism-based; settings: in vivo, 840 h, time < 35 day
[10] = system: Rattus norvegicus; assay: Antidiabetic activity against streptozotocin-induced Wistar rat assessed as effect on blood glucose level at 10 mg/kg, po measured on day 1; type: functional, organism-based; settings: time 1.0 day
[11] = Toxicity in Wistar rat assessed as decrease in body weight at 10 mg/kg, po measured on day 14; type: organism-based; settings: in vivo, 336 h, time 14 day
[12] = Toxicity in streptozotocin-induced Wistar rat assessed as morphological changes in liver at 10 mg/kg, po measured up to 35 days; type: organism-based; settings: in vivo, 840 h, time < 35 day
[13] = system: Rattus norvegicus; assay: Antidiabetic activity against streptozotocin-induced Wistar rat assessed as decrease in blood glucose level at 10 mg/kg, po measured at 30 mins by oral glucose test; type: functional, organism-based
[14] = system: Rattus norvegicus; assay: Antidiabetic activity against streptozotocin-induced Wistar rat assessed as increase in serum ALP level at 10 mg/kg, po measured upto 35 days; type: functional, organism-based; settings: time <= 35.0 day
[15] = Toxicity in Wistar rat assessed as decrease in body weight at 10 mg/kg, po measured on day 35; type: organism-based; settings: in vivo, 840 h, time 35 day
[16] = system: Rattus norvegicus; assay: Antidiabetic activity against streptozotocin-induced Wistar rat assessed as decrease in HDL level at 10 mg/kg, po measured upto 35 days; type: functional, organism-based; settings: time <= 35.0 day
[17] = system: Rattus norvegicus; assay: Antidiabetic activity against streptozotocin-induced Wistar rat assessed as decrease in triglyceride level at 10 mg/kg, po measured upto 35 days; type: functional, organism-based; settings: time <= 35.0 day
[18] = system: Rattus norvegicus; assay: Antidiabetic activity against streptozotocin-induced Wistar rat assessed as effect on blood glucose level at 10 mg/kg, po measured on day 4; type: functional, organism-based; settings: time 4.0 day
[19] = system: Rattus norvegicus; assay: Antidiabetic activity against streptozotocin-induced Wistar rat assessed as decrease in SOD level at 10 mg/kg, po measured upto 35 days; type: functional, organism-based; settings: time <= 35.0 day
[20] = system: Rattus norvegicus; assay: Antidiabetic activity against Wistar rat assessed as effect on glutathione level at 10 mg/kg, po measured upto 35 days; type: functional, organism-based; settings: time <= 35.0 day
[21] = Toxicity in streptozotocin-induced Wistar rat assessed as decrease in glomeruli shrinkage in kidney at 10 mg/kg, po measured up to 35 days; type: organism-based; settings: in vivo, 840 h, time < 35 day
[22] = system: Rattus norvegicus; assay: Antidiabetic activity against streptozotocin-induced Wistar rat assessed as increase in PPAR-gamma level at 10 mg/kg, po measured upto 35 days by ELISA analysis; type: functional, organism-based; settings: time <= 35.0 day
[23] = system: Rattus norvegicus; assay: Antidiabetic activity against streptozotocin-induced Wistar rat assessed as decrease in MDA level at 10 mg/kg, po measured upto 35 days; type: functional, organism-based; settings: time <= 35.0 day
[24] = Homo sapiens, PANC-1, read-out: IC50

SMILES | IC50 [1] | IC50 ([2]; read-out: IC50) | IC50 ([3]; read-out: IC50) | IC50 [4, 24] | Flu intensity [5] | further results
O=C1S/C(=C\c2cccc(Cl)c2Cl)C(=O)N1Cc1cccc([N+](=O)[O-])c1 | 54 µM | 44.6 µM | 30.4 µM | 179 µM | 65017 | 
O=C1S/C(=C\c2c(Cl)cccc2Cl)C(=O)N1Cc1cccc([N+](=O)[O-])c1 | 37.94 µM | 31.1 µM | 25.1 µM | 123 µM | 25204 | 
O=C1S/C(=C\c2ccc(-c3ccccc3)cc2)C(=O)N1Cc1cccc([N+](=O)[O-])c1 | 15.37 µM | 32.6 µM | 82.2 µM | 126 µM | 23092 | 
CN(C)c1ccc(/C=C2\SC(=O)N(Cc3cccc([N+](=O)[O-])c3)C2=O)cc1 | 16.9 µM | 211 µM | 81.1 µM | 194 µM | 76992 | 
N#Cc1ccccc1-c1ccc(N2C(=O)S/C(=C\c3ccccc3Oc3ccccc3)C2=O)cc1 |  |  |  |  |  | IC50 [6]: 0.13 µg/mL (≈ 0.274 µM)
COc1cc(OC)c(/C=C2\SC(=O)N(Cc3cccc([N+](=O)[O-])c3)C2=O)c(OC)c1 | 11.37 µM | 28.4 µM | 44.6 µM | 178 µM | 22596 | 
COc1cc(/C=C2\SC(=O)N(Cc3cccc([N+](=O)[O-])c3)C2=O)cc(OC)c1OC | 39.68 µM | 68 µM | 39.3 µM | 195 µM |  | 
C[C@H]1O[C@H](O[C@H]2[C@H](O)[C@@H](O)[C@@H](O[C@H]3[C@H](O)[C@@H](O)C(O)O[C@@H]3CO)O[C@@H]2CO)[C@H](O)[C@@H](O)[C@@H]1N[C@H]1C=C(CO)[C@@H](O)[C@H](O)[C@H]1O (some centres undefined) [ACARBOSE] |  |  |  |  | 1455 | IC50 [2]: Not Active; IC50 ([4]; panc-1): Not Active
COc1cc(/C=C2\SC(=O)N(Cc3cccc([N+](=O)[O-])c3)C2=O)ccc1O | 19.73 µM | 38.1 µM | 40.5 µM | 190 µM | 66221 | 
O=C1S/C(=C\c2ccc(Cl)cc2)C(=O)N1Cc1cccc([N+](=O)[O-])c1 | 22.61 µM | 32.2 µM | 44.7 µM | 94.9 µM |  | 
COc1cc(OC)c(OC)cc1/C=C1\SC(=O)N(Cc2cccc([N+](=O)[O-])c2)C1=O | 54.01 µM | 30.6 µM | 30.8 µM | 203 µM | 25238 | 
C=CCN1C(=O)S/C(=C\c2ccc(Cl)cc2Cl)C1=O |  |  |  |  |  | IC50 [7]: 18.19 µg/mL (≈ 57.9 µM); IC50 [6]: 43.85 µg/mL (≈ 140 µM)
CCc1ccc(CCOc2ccc(CC3SC(=O)NC3=O)cc2)nc1 (centres undefined) [PIOGLITAZONE] |  |  |  |  |  | Activity [8]: Active; Activity [9]: Non-Toxic; Activity [10]: Active; Activity [11]: Non-Toxic; Activity [12]: Non-Toxic; Activity [13]: Active; Activity [14]: Active; Activity [15]: Toxic; Activity [16]: Active; Activity [17]: Active; Activity [18]: Active; Activity [19]: Active; Activity [20]: Active; Activity [21]: Toxic; Activity [22]: Active; Activity [23]: Active
O=C1S/C(=C\c2c[nH]c3ccccc23)C(=O)N1Cc1ccccc1 | 25.76 µM | 30.2 µM | 82.2 µM | 191 µM | 22679 | 
COc1ccc(/C=C2\SC(=O)N(Cc3cccc([N+](=O)[O-])c3)C2=O)cc1O | 32.94 µM | 70.9 µM | 28 µM | 215 µM | 72737 | 
COc1ccc(/C=C2\SC(=O)N(Cc3cccc([N+](=O)[O-])c3)C2=O)c(OC)c1 | 65.52 µM | 32.1 µM | 30.2 µM | 166 µM | 37797 | 
COc1ccc(/C=C2\SC(=O)N(Cc3cccc([N+](=O)[O-])c3)C2=O)cc1 | 57.1 µM | 325 µM | 118 µM | 104 µM | 84568 | 
O=C1S/C(=C\c2ccc3c(c2)OCO3)C(=O)N1Cc1cn(-c2ccccc2Cl)nn1 |  |  |  |  |  | IC50 [7]: 0.1 µg/mL (≈ 0.227 µM)
O=C(O)CN1C(=O)S/C(=C\c2cn(-c3ccccc3)nc2-c2ccc([N+](=O)[O-])cc2)C1=O |  |  |  |  |  | IC50 [6]: 4.08 µg/mL (≈ 9.06 µM)
O=C1S/C(=C\c2ccc(O)cc2)C(=O)N1Cc1cccc([N+](=O)[O-])c1 | 29.28 µM | 34.9 µM | 42.9 µM | 32 µM | 35829 | 
COc1cccc(/C=C2\SC(=O)N(Cc3cccc([N+](=O)[O-])c3)C2=O)c1OC | 153.1 µM | 13.6 µM | 79.1 µM | 179 µM | 2271 | 
O=C1O[C@H]([C@@H](O)CO)C(O)=C1O [ASCORBIC ACID] |  | 25.1 µM |  |  |  | IC50 [3]: Not Active
COc1ccc(OC)c(/C=C2\SC(=O)N(Cc3cccc([N+](=O)[O-])c3)C2=O)c1 | 201 µM | 41.8 µM | 48.1 µM | 62.6 µM | 58455 | 
